Experiment [1] concerns T1, General amino-acid permease GAP1 (Saccharomyces cerevisiae), P19145 [C397C].
T1 sequence (whole entry): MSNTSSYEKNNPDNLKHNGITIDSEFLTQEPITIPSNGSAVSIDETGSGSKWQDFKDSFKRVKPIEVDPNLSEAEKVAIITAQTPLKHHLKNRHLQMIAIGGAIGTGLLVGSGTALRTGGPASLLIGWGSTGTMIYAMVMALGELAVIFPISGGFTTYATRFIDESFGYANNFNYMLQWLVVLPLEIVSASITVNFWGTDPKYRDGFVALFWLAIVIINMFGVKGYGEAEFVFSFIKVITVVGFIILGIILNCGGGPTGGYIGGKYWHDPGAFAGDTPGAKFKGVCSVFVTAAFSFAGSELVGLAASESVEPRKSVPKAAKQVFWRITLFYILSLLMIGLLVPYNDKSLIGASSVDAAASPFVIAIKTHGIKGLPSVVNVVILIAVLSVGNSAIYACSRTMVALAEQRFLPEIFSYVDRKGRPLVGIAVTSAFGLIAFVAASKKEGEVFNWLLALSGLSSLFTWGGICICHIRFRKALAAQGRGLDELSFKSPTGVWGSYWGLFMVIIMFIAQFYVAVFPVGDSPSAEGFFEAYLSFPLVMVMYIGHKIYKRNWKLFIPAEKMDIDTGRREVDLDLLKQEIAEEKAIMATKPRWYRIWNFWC
Briefly: Induction of yeast Gap1 C397C mutant-mediated trehalose activation at 10 mM.

Experiment [2] has as its system T2, General amino-acid permease GAP1 (Saccharomyces cerevisiae), P19145 [I382C].
T2 sequence (whole entry): T1 sequence (whole entry) with I382C
Put plainly: Activation of yeast Gap1 I382C mutant-mediated amino acid uptake at 10 mM.

For experiment [3] the test system is unchanged. Put plainly: Induction of yeast Gap1 I382C mutant-mediated amino acid uptake at 2 mM in presence of 10 mM MTSEA treated before compound addition.
The subject of experiment [4] is T3, General amino-acid permease GAP1 (Saccharomyces cerevisiae), P19145 [S398C].
T3 sequence (whole entry): T1 sequence (whole entry) with S398C
Put plainly: Induction of yeast Gap1 S398C mutant-mediated trehalose activation at 2 mM in presence of 10 mM MTSEA treated before compound addition.

Experiment [5] deals with General amino-acid permease GAP1 (Saccharomyces cerevisiae), P19145 [S392C]. Briefly: Inhibition of yeast Gap1 S392C mutant-mediated amino acid uptake at 10 mM.
The test system of experiment [6] is T4, General amino-acid permease GAP1 (Saccharomyces cerevisiae), P19145 [N391C].
T4 sequence (whole entry): T1 sequence (whole entry) with N391C
Put plainly: Induction of yeast Gap1 N391C mutant-mediated amino acid uptake at 2 mM in presence of 10 mM MTSEA treated before compound addition.

Experiment [7] has as its system General amino-acid permease GAP1 (Saccharomyces cerevisiae), P19145 [V402C]. Briefly: Inhibition of yeast Gap1 V402C mutant-mediated amino acid uptake at 10 mM.
For experiment [8], the system named is T3, General amino-acid permease GAP1 (Saccharomyces cerevisiae), P19145 [S398C]. Put plainly: Induction of yeast Gap1 S398C mutant-mediated amino acid uptake at 2 mM in presence of 10 mM MTSEA treated before compound addition.

These results are taken from ChEMBL document CHEMBL1221220, “Transport and signaling via the amino acid binding site of the yeast Gap1 amino acid transceptor” (Nat Chem Biol, 2009).

The structures appear in SMILES notation. Residue numbers refer to the chain shown, from its start. Activity calls are given as the source filed them. The calls are words filed in the database; no cut-off is given here.

Chain of General amino-acid permease GAP1 (Saccharomyces cerevisiae), P19145 [V402C] (P19145 whole entry V402C): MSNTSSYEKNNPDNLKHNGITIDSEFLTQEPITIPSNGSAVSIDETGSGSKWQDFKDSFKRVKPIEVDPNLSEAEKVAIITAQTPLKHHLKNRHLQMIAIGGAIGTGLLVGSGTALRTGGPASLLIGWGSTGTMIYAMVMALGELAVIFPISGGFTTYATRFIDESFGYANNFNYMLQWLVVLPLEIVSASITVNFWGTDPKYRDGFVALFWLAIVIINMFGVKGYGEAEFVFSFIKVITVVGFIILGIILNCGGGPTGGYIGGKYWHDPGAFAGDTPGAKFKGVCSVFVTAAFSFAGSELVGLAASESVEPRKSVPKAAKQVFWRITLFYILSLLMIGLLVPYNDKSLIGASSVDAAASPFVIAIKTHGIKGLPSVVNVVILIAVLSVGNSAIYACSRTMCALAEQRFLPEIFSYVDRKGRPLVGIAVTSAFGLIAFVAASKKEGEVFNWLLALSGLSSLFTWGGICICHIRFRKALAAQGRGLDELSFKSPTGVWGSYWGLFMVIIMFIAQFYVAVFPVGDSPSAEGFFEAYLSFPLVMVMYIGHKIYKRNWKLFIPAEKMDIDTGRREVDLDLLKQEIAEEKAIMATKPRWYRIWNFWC
Chain of General amino-acid permease GAP1 (Saccharomyces cerevisiae), P19145 [S392C] (P19145 whole entry S392C): as the sequence (P19145 whole entry V402C) above, with S392C, C402V counted along it

For the compound `NC(=O)NCCC[C@H](N)C(=O)O`, the outcome in experiment [1] and in experiment [2] was inactive. Further, the result in experiment [3], in experiment [6] and in experiment [8] was Active. The inhibition entry in experiment [4], in experiment [5] and in experiment [7] was “Active” in each case.
